Experimental data taken from patent US20010014742A1, “Water-soluble prodrugs of azole compounds” (priority 1999, published 2001).
Values after ≈ are worked out from the molar mass of the structure shown.

Experiment: aqueous solubility
Type: physicochemical
Details: water at pH 6.8

SMILES: C[C@@H](c1nc(-c2ccc(C#N)cc2)cs1)C(O)(Cn1cncn1)c1ccc(F)cc1F (stereo partly drawn) [the above triazole compound, (2R,3R)-3-[4-(4-cyanophenyl)thiazol-2-yl]-2-(2,4-difluorophenyl)-1-(1H,1,2,4-triazol-1-yl)-butan-2-ol]
- solubility: 0.6 µg/mL (≈ 1.37 µM)
